Results on five compounds are retold here after patent publication US5290757A (priority 1993, dated 1994).

Where a SMILES comes first, the peptide text is derived from it.

For test [1], the system named is perennial ryegrass (Lolium perenne) seeds. Nature of the test: Petri dish root-inhibition bioassay on perennial ryegrass seeds. In kind it is in vivo. The note with it: for Root Length of Perennial Ryegrass Seedlings Expressed as a Percentage of the Control: average of 2 trials; for relative effectiveness among the five dipeptides: perennial ryegrass root inhibition. Here is the method:
Bioactive fractions of the eluate were identified with bioassays, then pooled and subjected to further purification steps. […] The dishes were sealed with parafilm and placed in a controlled environmental chamber. The light intensity in the growth chamber was 70 μmol m^-2 s^-1 at 25° C./15° C. day/night temperature with a 16 hr photoperiod. One ml of a given eluate fraction was applied to the filter paper in each petri dish. The study was conducted with seven replications for each eluate fraction. […] Louis, Mo. The fifth, Gln-Gln, was obtained from Bachem Bioscience Inc. The activity of each synthetically derived peptide was tested in seven replications on perennial ryegrass using the same bioassay technique described in Example 4 in the presence of increasing amounts of the dipeptides mixed with distilled water (Table V).

The subject of test [2] is creeping bentgrass (Agrostis palustris). Nature of the test: Soil pot study of dipeptide bioactivity on creeping bentgrass. In kind it is in vivo. The following applies: for Mean root length of creeping bentgrass seedlings / Percentage of creeping bentgrass plants surviving: 21 days after treatment. As for the experimental part: In a study designed to verify the bioactivity of the dipeptides on soil, Ala-Gln and Gly-Ala were applied to the surface of 56.3 cm^2 plastic pots filled with a Nicollet (fine, loamy, […], Aquic Hapludol soil. The two dipeptides were applied at 0 to 3552 mg/dm^2. […] The test specie was creeping bentgrass (Agrostis palustris).

Setting [3] is: 8 μg/cm^2 dipeptide on filter paper.
Setting [4] is: 13 μg/cm^2 dipeptide on filter paper.
The mark [5] stands for this setting: 21 μg/cm^2 dipeptide on filter paper.
Setting [6] is: 26 μg/cm^2 dipeptide on filter paper.
[7] abbreviates: 31 μg/cm^2 dipeptide on filter paper.
Setting [8] is: 39 μg/cm^2 dipeptide on filter paper.
Where [9] appears, read: 52 μg/cm^2 dipeptide on filter paper.
The mark [10] stands for this setting: concentrations of 1.8 g/dm^2 and above.
[11] abbreviates: much lower concentrations than 1.8 g/dm^2.

Take `C[C@H](N)C(=O)N[C@@H](CCC(N)=O)C(=O)O` [Ala-Gln, alaninyl-glutamine] (H-Ala-Gln-OH): the “Root Length of Perennial Ryegrass Seedlings Expressed as a Percentage of the Control” value (from here on “Root Length … as a Percentage of the Control”) in test [1] (setting [3]) was determined as 83%; in test [1] (setting [4]), 70%; in test [1] (setting [5]), 49%; in test [1] (setting [6]), 41%; in test [1] (setting [7]), 4%; in test [1] (setting [8]) it was 0%. The “Root Length … as a Percentage of the Control” value in test [1] (setting [9]) is 0%. Moreover, the “Mean root length of creeping bentgrass seedlings” value (from here on “Mean root length”) in test [2] (89 mg/dm^2 on soil surface) turned out to be 20 mm; in test [2] (178 mg/dm^2 on soil surface), 15 mm; in test [2] (355 mg/dm^2 on soil surface), 2 mm; in test [2] (710 mg/dm^2 on soil surface), 0 mm; in test [2] (1066 mg/dm^2 on soil surface), 0 mm; in test [2] (1776 mg/dm^2 on soil surface), 0 mm. In addition, the “Mean root length” value in test [2] (3552 mg/dm^2 on soil surface) is 0 mm. In addition, the “Percentage of creeping bentgrass plants surviving” value stood at 100% in test [2] (89 mg/dm^2 on soil surface); 40% in test [2] (178 mg/dm^2 on soil surface); 30% in test [2] (355 mg/dm^2 on soil surface); 25% in test [2] (710 mg/dm^2 on soil surface); 5% in test [2] (1066 mg/dm^2 on soil surface); 0% in test [2] (1776 mg/dm^2 on soil surface). Besides, the “Percentage of creeping bentgrass plants surviving” value in test [2] (3552 mg/dm^2 on soil surface) was 0%. Also, the “inhibition of emergence and establishment of creeping bentgrass” value in test [2] (setting [10]) is reported as “completely inhibit”; in test [2] (setting [11]), “partially effective”.

Consider `C[C@H](N)C(=O)N[C@@H](CC(N)=O)C(=O)O` [Ala-Asn, alaninylasparagine] (H-Ala-Asn-OH), for which the “Root Length … as a Percentage of the Control” value is recorded as 101% in test [1] (setting [3]); 85% in test [1] (setting [4]); 63% in test [1] (setting [5]); 29% in test [1] (setting [6]); 2% in test [1] (setting [7]); 0% in test [1] (setting [8]). For the same compound, in test [1] (setting [9]), the “Root Length … as a Percentage of the Control” value turned out to be 0%. In addition, the “relative effectiveness among the five dipeptides” value in test [1] is on record as “most effective”.

As to `C[C@H](NC(=O)CN)C(=O)O` [Gly-Ala, glycinyl-alanine] (H-Gly-Ala-OH), the “Root Length … as a Percentage of the Control” value in test [1] (setting [3]) came to 95%; in test [1] (setting [4]), 68%; in test [1] (setting [5]), 29%; in test [1] (setting [6]), 16%; in test [1] (setting [7]), 9%; in test [1] (setting [8]), 2%. Further, in test [1] (setting [9]), the “Root Length … as a Percentage of the Control” value stood at 0%. Also, the “Mean root length” value in test [2] (89 mg/dm^2 on soil surface) is recorded as 20 mm; in test [2] (178 mg/dm^2 on soil surface) it was 15 mm; in test [2] (355 mg/dm^2 on soil surface), 5 mm; in test [2] (710 mg/dm^2 on soil surface), 2 mm; in test [2] (1066 mg/dm^2 on soil surface) it was 2 mm; in test [2] (1776 mg/dm^2 on soil surface), 0 mm. The “Mean root length” value in test [2] (3552 mg/dm^2 on soil surface) is 0 mm. Besides, the “Percentage of creeping bentgrass plants surviving” value in test [2] (89 mg/dm^2 on soil surface) was determined as 105%; in test [2] (178 mg/dm^2 on soil surface), 40%; in test [2] (355 mg/dm^2 on soil surface) it was 30%; in test [2] (710 mg/dm^2 on soil surface), 25%; in test [2] (1066 mg/dm^2 on soil surface), 25%; in test [2] (1776 mg/dm^2 on soil surface), 0%. In addition, the “Percentage of creeping bentgrass plants surviving” value in test [2] (3552 mg/dm^2 on soil surface) came to 0%. Also, the figures for the “inhibition of emergence and establishment of creeping bentgrass” value in test [2] (setting [10]) and in test [2] (setting [11]) were “completely inhibit” and “partially effective”, respectively.

`C[C@H](N)C(=O)N[C@@H](C)C(=O)O` [Ala-Ala, alaninyl-alanine] (H-Ala-Ala-OH): the “Root Length … as a Percentage of the Control” value in test [1] (setting [3]) was determined as 74%; in test [1] (setting [4]) it was 44%; in test [1] (setting [5]), 27%; in test [1] (setting [6]), 5%; in test [1] (setting [7]) it was 1%; in test [1] (setting [8]), 2%. Besides, the “Root Length … as a Percentage of the Control” value in test [1] (setting [9]) is recorded as 0%. Besides, in test [1], the “relative effectiveness among the five dipeptides” value is on record as “most effective”.

Turning to `NC(=O)CC[C@H](NC(=O)[C@@H](N)CCC(N)=O)C(=O)O` [Gln-Gln, glutaminyl-glutamine] (H-Gln-Gln-OH), the “Root Length … as a Percentage of the Control” value in test [1] (setting [3]) came out at 107%; in test [1] (setting [4]) it was 89%; in test [1] (setting [5]) it was 82%; in test [1] (setting [6]) it was 63%; in test [1] (setting [7]) it was 12%; in test [1] (setting [8]), 3%. Moreover, the “Root Length … as a Percentage of the Control” value in test [1] (setting [9]) is recorded as 0%.
